According to paper PMC3665789 (PLoS ONE, 2013):
Like-named read-outs stand apart in the source and are kept apart here.

How the values were obtained:
[1] = tested on: HIV-1 IIIB; test: Time-of-drug-addition study, HIV; type: cell-based; conditions: MT-4 cells; for time of addition after infection at which antiviral activity is completely lost: p24 Ag ELISA after 31 h, 421 µM dextran sulfate 8000, 6 µM AMD3100
Method: The time-of-drug-addition (TOA) experiments were performed as described. In brief, 1×10^6 MT-4 cells/ml were infected with HIV-1 X4 IIIB at a multiplicity of infection (MOI) of 0.5. The compounds were added at different time points in a range from 0 to 26 h post-infection. After 31 h, HIV-1 replication was detected by p24 HIV-1 Ag ELISA as described above. The reference compounds were added at 100 times their EC50-values, as obtained in the MT-4 cell antiviral assay.

[2] = tested on: HIV-1 NL4.3 binding to CD4+ SupT1 cells; type: cell-based; conditions: LabyA1 9.6 µM, sCD4 10 µg/ml, AMD3100 12 µM; no compound MFI 9.8, background 3.9
[3] = tested on: HIV-1 NL4.3; test: Pre-incubation of MT-4 cells with compound, wash, then HIV-1 NL4.3 infection; type: cell-based; conditions: MT-4 cells pre-incubated 2 h at 37°C, washed, infected with HIV-1 NL4.3; 5 days; control 100% CPE
[4] = tested on: HSV-2 TK^-; test: Anti-HSV CPE assay in HEL, summary; type: cell-based; conditions: Human alphaherpesvirus 2, HEL, read-out: Median EC50
[5] = tested on: HSV-2 strain G; test: Time-of-drug-addition study, HSV-2; type: cell-based; conditions: HEL cells; LabyA1 19 µM, ACV 35 µM; after 3 days
Method: TOA experiments for HSV-2 were performed identically as the viral replication assays, but each compound separately (LabyA1 or ACV) was added together with the virus (0 h) or after 2 h post-infection. The reference compound was added at least 100 times its EC50-value, as obtained in the HEL cell line (Table 3).

[6] = tested on: HSV-1 wild-type KOS (reference strain); test: microbe, parasite or virus in culture; conditions: Human alphaherpesvirus 1, HEL
[7] = tested on: HSV-1 wild-type RV-174 (clinical isolate); test: microbe, parasite or virus in culture; conditions: Human alphaherpesvirus 1, HEL
[8] = tested on: HSV-1 wild-type RV-175 (clinical isolate); test: microbe, parasite or virus in culture; conditions: Human alphaherpesvirus 1, HEL
[9] = tested on: HSV-1 wild-type C559142 (clinical isolate); test: microbe, parasite or virus in culture; conditions: Human alphaherpesvirus 1, HEL
[10] = tested on: HSV-2 wild-type G (reference strain); test: microbe, parasite or virus in culture; conditions: Human alphaherpesvirus 2, HEL
[11] = tested on: HSV-2 wild-type RV-124 (clinical isolate); test: microbe, parasite or virus in culture; conditions: Human alphaherpesvirus 2, HEL
[12] = tested on: HSV-2 wild-type RV-24 (clinical isolate); test: microbe, parasite or virus in culture; conditions: Human alphaherpesvirus 2, HEL
[13] = tested on: HSV-1 wild-type; test: microbe, parasite or virus in culture; conditions: Human alphaherpesvirus 1, HEL, read-out: Median EC50
[14] = tested on: HSV-1 TK^-; test: microbe, parasite or virus in culture; conditions: Human alphaherpesvirus 1, HEL, read-out: Median EC50
[15] = tested on: HSV-2 wild-type; test: microbe, parasite or virus in culture; conditions: Human alphaherpesvirus 2, HEL, read-out: Median EC50
[16] = tested on: HSV-2 TK^- RV-129 (clinical isolate); test: microbe, parasite or virus in culture; type: cell-based; conditions: Human alphaherpesvirus 2, HEL
[17] = tested on: HSV-1 TK^- RV-294 (clinical isolate); test: microbe, parasite or virus in culture; conditions: Human alphaherpesvirus 1, HEL
[18] = tested on: HSV-1 TK^- RV-179 (clinical isolate); test: microbe, parasite or virus in culture; conditions: Human alphaherpesvirus 1, HEL
[19] = tested on: HSV-1 TK^- RV-117 (clinical isolate); test: microbe, parasite or virus in culture; conditions: Human alphaherpesvirus 1, HEL
[20] = tested on: HSV-2 TK^- BA19026589 (clinical isolate); test: microbe, parasite or virus in culture; conditions: Human alphaherpesvirus 2, HEL
[21] = tested on: herpes virus; test: Anti-herpes virus activity of griffithsin in vitro; type: cell-based
[22] = tested on: HIV; parameters: method as in PMID 15613479, PMID 17669213; conditions: cited from earlier work
[23] = tested on: PBMCs; test: Activation markers CD25 and CD69 on PBMCs (flow cytometry); type: cell-based; conditions: 3 days, LabyA1 9.6 µM, PHA 0.016 µM
Method: The effects of 9.6 µM LabyA1 and 0.016 µM PHA on the expression levels of the cellular activation markers CD25 and CD69 on PBMCs was measured after 3 days of incubation at 37°C. After washing with PBS/FCS2%, cells were incubated with anti-CD4 conjugated with PerCP (BD Biosciences) and co-stained with the PE-conjugated mAbs anti-CD25 or anti-CD69 (both BD Biosciences) for 30 min at 4°C. For aspecific background staining, cells were incubated with SimulTest™ Control (IgGγ1-FITC/IgGγ2a-PE). After washing, and fixation with 1% formaldehyde solution, samples were analyzed using the FACSCalibur and CellQuest software (BD Biosciences).

[24] = tested on: HIV-1 R5 BaL in PBMCs; test: Susceptibility of pre-treated PBMCs for HIV-1 infection; conditions: washed, HIV-1 BaL, day 7
Method: The next day, cells were collected, extensively washed in culture medium, resuspended (5×10^5 cells/450 µl) and seeded in a 48-well plate. Immediately afterwards, 50 µl of HIV-1 R5 strain BaL (500 pg/well) was added and cells were cultures for 7 days. Supernatant was collected 7 days post virus infection and viral replication was determined by p24 HIV-1 Ag ELISA.

For `c1cc(CN2CCCNCCNCCCNCC2)ccc1CN1CCCNCCNCCCNCC1` [AMD3100], the “time of addition after infection at which antiviral activity is completely lost” value [1] was 2 h, the “virus binding, mean fluorescence intensity (MFI) of anti-gp120 (9205) mAb” value [2] was 9.5 and the “% CPE after pre-incubation of cells and removal of compound” value [3] was 13.5±5.5 % CPE.
In the case of `Nc1nc2c(ncn2COCCO)c(=O)[nH]1` [Acyclovir, acyclovir], the EC50 [4] is reported as 52000 nM, the “HSV-2 induced CPE, compound given simultaneously with virus (0 h)” value [5] is reported as “no CPE or viral replication were observed” and the “antiviral activity, compound added after 2 h adsorption period” value [5] is reported as “still active”. It also gave an EC50 [6] of 180 ± 90 nM, an EC50 [7] of 310 ± 20 nM and an EC50 [8] of 180 ± 30 nM. The EC50 [9] was 90 ± 20 nM, the EC50 [10] was 270 ± 10 nM and the EC50 [11] was 400 ± 60 nM. It also gave an EC50 [12] of 130 ± 90 nM, an EC50 [13] of 180 nM and an EC50 [14] of over 79000 nM. The EC50 [15] was 270 nM.
`Nc1ccn(C[C@@H](CO)OCP(=O)(O)O)c(=O)n1` [Cidofovir, cidofovir] showed an EC50 [16] of 550 ± 200 nM, an EC50 [4] of 750 nM and an EC50 [6] of 480 ± 110 nM. For the same compound, the EC50 [7] was 1300 ± 100 nM, the EC50 [8] was 1100 ± 100 nM and the EC50 [9] was 530 ± 90 nM. For the same compound, the EC50 [17] was 300 ± 20 nM, the EC50 [18] was 390 ± 120 nM and the EC50 [19] was 500 ± 120 nM. For the same compound, the EC50 [10] was 600 ± 100 nM, the EC50 [11] was 1300 ± 300 nM and the EC50 [12] was 1100 ± 300 nM. For the same compound, the EC50 [20] was 950 ± 240 nM, the EC50 [13] was 820 nM and the EC50 [14] was 390 nM. The EC50 [15] was 1100 nM.
With `Cc1ccnc2c1NC(=O)c1cccnc1N2C1CC1` [nevirapine] the “time of addition post-infection up to which full activity is kept” value ([1]; 7.5 µM nevirapine) was 4 h.
Compound `C[C@H](Cn1cnc2c(N)ncnc21)OCP(=O)(O)O` [tenofovir] has an EC50 ([10]; read-out: EC50 against HSV-2) of over 200000 nM.
In the case of Griffithsin, the “anti-herpes virus activity in vitro” value [21] is given as “lacks anti-herpes virus activity in vitro” and the anti-HIV activity [22] is given as “pM range”.
For dextran sulfate 8000, the “time of addition after infection at which antiviral activity is completely lost” value [1] was 1 h.
With enfuvirtide [T20] the “% CPE after pre-incubation of cells and removal of compound” value [3] was 72.6±13.4 % CPE.
For “phytohemagglutinin [PHA, reference compound]”, the “percentage of CD4+CD69+ cells” value ([23]; untreated 1.4±0.8%) was 30.9±5.5%, the “percentage of CD4+CD25+ cells” value ([23]; untreated 10.7±3.2%) was 37.2±6.6% and the “p24 HIV-1 Ag production after pre-treatment” value ([24]; PBMCs pre-treated 24 h with 0.016 µM) was 125.08 ± 37.81 ng/mL. The “p24 HIV-1 Ag production after pre-treatment” value ([24]; PBMCs pre-treated 24 h with 0.078 µM) was 169.54 ± 35.22 ng/mL.
